In ChEMBL document CHEMBL1152535, “Synthesis of branched 9-[2-(2-phosphonoethoxy)ethyl]purines as a new class of acyclic nucleoside phosphonates which inhibit Plasmodium falciparum hypoxanthine-guanine-xanthine phosphoribosyltransferase” (Bioorg Med Chem, 2009) one finds Ratio Ki and Ki data, which are given here for four molecules.

pKi: −log10 of the molar value.

A short description of experiment [1]: Selectivity ratio of Ki for human recombinant HGPRT to Ki for Plasmodium falciparum recombinant HGXPRT.
Experiment [2] concerns the target T1, Hypoxanthine-guanine phosphoribosyltransferase (Homo sapiens, UniProt P00492).
T1 sequence (P00492 whole entry): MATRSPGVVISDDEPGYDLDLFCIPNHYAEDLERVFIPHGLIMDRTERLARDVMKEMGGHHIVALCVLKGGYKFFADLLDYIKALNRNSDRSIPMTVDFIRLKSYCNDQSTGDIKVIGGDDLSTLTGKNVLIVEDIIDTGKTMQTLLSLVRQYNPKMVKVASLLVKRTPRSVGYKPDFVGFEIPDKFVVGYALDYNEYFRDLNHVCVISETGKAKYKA
Description: Inhibition of human recombinant HGPRT expressed in Escherichia coli by spectrophotometric assay.

Experiment [3] can be described thus: Inhibition of Plasmodium falciparum recombinant HGXPRT expressed in Escherichia coli by spectrophotometric assay.

For the molecule `CCC(CP(=O)(O)O)OCCn1cnc2c(=O)[nH]c(N)nc21` (configuration not stated), in experiment [1], the Ratio Ki came to 0.06. Further, the pKi is 6.52 in experiment [2] and 5.30 in experiment [3].

For the molecule `CC(CP(=O)(O)O)OCCn1cnc2c(=O)[nH]cnc21` (configuration not stated), in experiment [1], the Ratio Ki came out at 0.2. Besides, the values for the pKi in experiment [2] and in experiment [3] were 5.70 and 5.00, respectively.

As for `CC(CP(=O)(O)O)OCCn1cnc2c(=O)[nH]c(N)nc21` (configuration not stated), in experiment [1], the Ratio Ki came to 0.1. Also, the pKi in experiment [2] is 7.00; in experiment [3], 6.00.

As to `CCC(CP(=O)(O)O)OCCn1cnc2c(=O)[nH]cnc21` (configuration not stated), the Ratio Ki in experiment [1] worked out at 0.15. Further, the pKi in experiment [2] is 5.00; in experiment [3], 4.16.

Broadly, the pKi is the Ki on a negative log10 scale, so that one unit is a factor of ten.
